Measurements reported in ChEMBL document CHEMBL5550114, “Disclosure of cinnamic acid/4,9-diaminoacridine conjugates as multi-stage antiplasmodial hits” (Bioorg Med Chem, 2024).
Active and inactive are the calls of the source. The calls are words filed in the database; no cut-off is given here.

What was measured:
Plasmodium berghei [1] = assay: Antiplasmodial activity against GFP-Luccon-fused liver stage Plasmodium berghei infected in human Huh-7 cells assessed as parasitic growth inhibition at 1 uM measured after 48 hrs by bioluminescence assay; format: functional, organism-based
Plasmodium berghei [2] = assay: Antiplasmodial activity against GFP-Luccon-fused liver stage Plasmodium berghei infected in human Huh-7 cells assessed as parasitic growth inhibition at 10 uM measured after 48 hrs by bioluminescence assay; format: functional, organism-based
Plasmodium falciparum [3] = assay: Antiplasmodial activity against gametocyte stage Plasmodium falciparum NF54-gexp02-Tom infected in group B human erythrocytes assessed as parasitic growth inhibition measured after 15 days by Geimsa staining based analysis; format: functional, organism-based; conditions: Erythrocyte, 360 h
Plasmodium falciparum [4] = assay: Antiplasmodial activity against CQ-sensitive blood stage Plasmodium falciparum 3D7 infected in group B human erythrocytes assessed as parasitic growth inhibition measured after 48 hrs by flow cytometry; format: functional, organism-based; conditions: 3D7, Erythrocyte
Huh-7 = assay: Cytotoxicity against human Huh-7 cells assessed as cell viability at 10 uM measured after 48 hrs by Alamar blue staining based analysis; format: toxicity; conditions: huh-7, 48 h
Plasmodium falciparum [5] = assay: Antiplasmodial activity against CQ-sensitive blood stage Plasmodium falciparum 3D7 assessed as parasitic growth inhibition; format: functional, organism-based
Plasmodium berghei [6] = assay: Antiplasmodial activity against GFP-Luccon-fused liver stage Plasmodium berghei infected in human Huh-7 cells assessed as parasitic growth inhibition measured after 48 hrs by Alamar blue staining based analysis; format: functional, organism-based; conditions: Huh-7, 48 h

Row | SMILES | inhibition (Plasmodium berghei [1]) | inhibition (Plasmodium berghei [2]) | IC50 (Plasmodium falciparum [3]) [nM] | IC50 (Plasmodium falciparum [4]) [nM] | Activity (Huh-7) | IC50 (Plasmodium falciparum [5]) [nM] | IC50 (Plasmodium berghei [6]) [nM]
1 | COc1ccc(/C=C/C(=O)NCCCCNc2cc(OC)cc3cc4ccc(Cl)cc4nc23)cc1 | inactive | Active | – | – | – | – | –
2 | COc1cc(NC(C)CCCN)c2ncccc2c1 (stereo not drawn) [PRIMAQUINE] | inactive | Active | 17700 | – | – | – | –
3 | CCN(CC)CCCNc1c2ccc(Cl)cc2nc2c(NCCCCNC(=O)/C=C/c3ccccc3)cc(OC)cc12 | inactive | Active | – | 80 | Toxic | – | –
4 | CCN(CC)CCCC(C)Nc1c2ccc(Cl)cc2nc2c(NCCCCN)cc(OC)cc12 (stereo not drawn) | inactive | Active | – | – | Non-Toxic | 680 | 11000
5 | CCN(CC)CCCNc1c2ccc(Cl)cc2nc2c(NCCCCN)cc(OC)cc12 | inactive | Active | – | – | Non-Toxic | 440 | –
6 | COc1cc(NCCCCNC(=O)/C=C/c2cccc(F)c2)c2nc3cc(Cl)ccc3cc2c1 | inactive | Active | – | – | – | – | –
7 | COc1cc(NCCCCNC(=O)/C=C/c2ccc(F)cc2)c2nc3cc(Cl)ccc3cc2c1 | inactive | Active | – | – | – | – | –
8 | CCN(CC)CCCNc1c2ccc(Cl)cc2nc2c(NCCCCNC(=O)/C=C/c3ccc(F)cc3)cc(OC)cc12 | inactive | Active | – | 348 | Toxic | – | –
9 | CCN(CC)CCCC(C)Nc1c2ccc(Cl)cc2nc2c(NCCCCNC(=O)/C=C/c3cccc(F)c3)cc(OC)cc12 (stereo not drawn) | inactive | Active | – | 164 | Toxic | – | –
10 | CCN(CC)CCCNc1c2ccc(Cl)cc2nc2c(NCCCCNC(=O)/C=C/c3ccc(OC)cc3)cc(OC)cc12 | inactive | Active | 474 | 164 | Toxic | – | –
11 | CCN(CC)CCCC(C)Nc1c2ccc(Cl)cc2nc2c(NCCCCNC(=O)/C=C/c3ccc(F)cc3)cc(OC)cc12 (stereo not drawn) | inactive | Active | 645 | 178 | Toxic | – | –
12 | CCN(CC)CCCC(C)Nc1c2ccc(Cl)cc2nc2c(NCCCCNC(=O)/C=C/c3ccccc3)cc(OC)cc12 (stereo not drawn) | inactive | Active | 461 | 143 | Toxic | – | –
13 | CCN(CC)CCCC(C)Nc1ccnc2cc(Cl)ccc12 (stereo not drawn) | inactive | Active | – | – | – | – | –
14 | COc1cc(NCCCCNC(=O)/C=C/c2ccccc2)c2nc3cc(Cl)ccc3cc2c1 | inactive | Active | – | – | – | – | –
15 | CCN(CC)CCCNc1c2ccc(Cl)cc2nc2c(NCCCCNC(=O)/C=C/c3cccc(F)c3)cc(OC)cc12 | inactive | Active | ~430 | 161 | Toxic | – | –
16 | CCN(CC)CCCC(C)Nc1c2ccc(Cl)cc2nc2c(NCCCCNC(=O)/C=C/c3ccc(OC)cc3)cc(OC)cc12 (stereo not drawn) | inactive | Active | – | 153 | Toxic | – | –
